For orientation: IC50 means the point on the concentration scale where inhibition reaches its midpoint.

Drawing on BindingDB's records for doi:10.1016/j.ab.2006.10.017 (Pfizer, 2007), this text covers IC50 for six compounds.

Molecules are shown by their SMILES.

The test concerns the target T1, Renin (Homo sapiens, UniProt P00797).
T1 sequence (P00797 whole entry): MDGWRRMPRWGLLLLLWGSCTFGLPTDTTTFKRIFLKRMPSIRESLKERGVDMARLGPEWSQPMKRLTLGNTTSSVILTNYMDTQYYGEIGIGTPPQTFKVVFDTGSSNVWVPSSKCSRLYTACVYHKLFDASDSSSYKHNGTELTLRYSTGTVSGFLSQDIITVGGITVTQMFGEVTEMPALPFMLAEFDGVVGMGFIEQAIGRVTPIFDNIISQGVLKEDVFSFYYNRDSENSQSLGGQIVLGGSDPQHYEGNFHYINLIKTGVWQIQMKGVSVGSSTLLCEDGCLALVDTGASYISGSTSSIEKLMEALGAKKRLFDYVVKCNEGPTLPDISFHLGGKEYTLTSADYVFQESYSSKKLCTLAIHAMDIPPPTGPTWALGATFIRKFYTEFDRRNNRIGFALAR
Nature of the test: In Vitro Renin IC50 Determinations (Tandem GFP FRET Assay). As to conditions: pH 7.4; 22 °C. From the text: The renin assay utilized a tandem Green Flourescent Protein (tGFP) substrate that was hydrolyzed by human rennin.

The compound `CCc1nc(N)nc(NCCc2ccccc2NC(=O)c2ccc(N)c(OC)c2)c1-c1ccc2c(c1)N(CCCOC)C(=O)C(C)(C)O2` [4-amino-N-{2-[2-({2-amino-6-ethyl-5-[4-(3-methoxypropyl)-2,2-dimethyl-3-oxo-3,4-dihydro-2H-1,4-benzoxazin-6-yl]pyrimidin-4-yl}amino)ethyl]phenyl}-3-methoxybenzamide] showed an IC50 of 336 nM.
`CCc1nc(N)nc(N)c1-c1ccc(NCc2cc(F)cc(F)c2)cc1` [5-(4-{[(3,5-difluorophenyl)methyl]amino}phenyl)-6-ethylpyrimidine-2,4-diamine]: the IC50 is 6560 nM.
Next, `CCc1nc(N)nc(N)c1-c1ccc2c(c1)N(CCCOC)CCC2` [6-ethyl-5-[1-(3-methoxypropyl)-1,2,3,4-tetrahydroquinolin-7-yl]pyrimidine-2,4-diamine]: 691 nM; `CCc1nc(N)nc(N)c1-c1ccc2c(c1)N(CCCOC)C(c1ccccc1)CC2` (stereo unspecified) [6-ethyl-5-[1-(3-methoxypropyl)-2-phenyl-1,2,3,4-tetrahydroquinolin-7-yl]pyrimidine-2,4-diamine]: 58 nM; `CCc1nc(N)nc(N)c1-c1ccc2c3ccccc3n(CCCOC)c2c1` [6-ethyl-5-[9-(3-methoxypropyl)-9H-carbazol-2-yl]pyrimidine-2,4-diamine]: 173 nM.
Next, `CCc1nc(N)nc(NCCNS(=O)(=O)c2ccc3ccccc3c2)c1-c1ccc2c(c1)N(CCCOC)C(=O)C(C)(C)O2` [N-[2-({2-amino-6-ethyl-5-[4-(3-methoxypropyl)-2,2-dimethyl-3-oxo-3,4-dihydro-2H-1,4-benzoxazin-6-yl]pyrimidin-4-yl}amino)ethyl]naphthalene-2-sulfonamide]: 27 nM.
